Reference: US20130245081A1, “Compositions and Methods for Treating Amyotrophic Lateral Sclerosis” (priority 2009, published 2013)
Like-named read-outs stand apart in the source and are kept apart here.

Test system: patients with ALS
Conditions: for treatment failures (6-point or greater drop in ALSFRS-R total score): baseline to 12 weeks; for treatment failures (reduction in VC of 20% or greater): baseline to Week 12

## CCCN[C@@H]1CCc2nc(N)sc2C1 [dexpramipexole, (6R)-2-amino-4,5,6,7-tetrahydro-6-(propylamino)benzothiazole]
50 mg/day
  treatment failures (6-point or greater drop in ALSFRS-R total score): 35%
50 mg, 12 weeks
  mean change from baseline to endpoint in ALSFRS-R total score: −5.0
  median change from baseline to endpoint in ALSFRS-R score: −3.0
50 mg, Week 12 of Part 1
  mean ALSFRS-R total score: 32.4
  mean McGill SIS score: 6.3
  mean upright VC: 82.5%
50 mg
  treatment failures (reduction in VC of 20% or greater): 13%
150 mg/day
  treatment failures (6-point or greater drop in ALSFRS-R total score): 15%
150 mg, 12 weeks
  mean change from baseline to endpoint in ALSFRS-R total score: −3.3
  median change from baseline to endpoint in ALSFRS-R score: −2.5
150 mg, Week 12 of Part 1
  mean ALSFRS-R total score: 35.8
  mean upright VC: 82.3%
150 mg
  treatment failures (reduction in VC of 20% or greater): 12%
300 mg/day
  treatment failures (6-point or greater drop in ALSFRS-R total score): 8%
300 mg/day, study endpoint
  mean fine motor domain change of ALSFRS-R (mean±SEM): −0.6±0.24
300 mg, 12 weeks
  mean change from baseline to endpoint in ALSFRS-R total score: −2.2
  median change from baseline to endpoint in ALSFRS-R score: −2.0
  reduction of mean ALSFRS-R decline compared with placebo: 39%
  reduction of median ALSFRS-R decline compared with placebo: 50%
300 mg, Part 1
  slope of ALSFRS-R scores (linear mixed-effects): −0.878
300 mg, Week 12 of Part 1
  mean ALSFRS-R total score: 36.2
  mean McGill SIS score: 7.3
  mean upright VC: 82.1%
  median upright VC: 91.2%
300 mg
  treatment failures (reduction in VC of 20% or greater): 4%
Daily doses of 30 mg (so in the source)
  reduction in handwriting score (FIG. 4A): almost no reduction
